We go through 11 compounds from patent publication US20240343710A1, “HETEROCYCLIC COMPOUNDS AND METHODS OF USE THEREOF” (1cBio, Inc., priority 2023, published 2024).

The target of one test is recombinant human PARP1 (Homo sapiens, UniProt P09874). Briefly: PARP1 fluorescence polarization binding assay. The settings on record: GST-tagged PARP1 20 nM, PARP1-FL probe 3 nM. As to the method:
In some embodiments, the biological assay is described in the Examples herein. In some embodiments, the biological assay measures PARP-1 binding by way of fluorescence polarization measurements. In some embodiments, binding of a test compound to recombinant human PARP-1 reduces the amount of binding of a fluorescent probe, and consequently reduces the detected level of fluorescence polarization. In some test compound stock solutions are prepared in a solvent, e.g., DMSO, and are serially diluted into a range of concentrations, e.g., 15 concentrations, 14 concentrations, 13 concentrations, 12 concentrations, 11 concentrations, 10 concentrations, 9 concentrations, 8 concentrations, 7 concentrations, 6 concentrations, or 5 concentrations, by a dilution factor, e.g., a 10-fold dilution factor, a 9-fold dilution factor, an 8-fold dilution factor, a 7-fold dilution factor, a 6-fold dilution factor, a 5-fold dilution factor, a 4-fold dilution factor, a 3-fold dilution factor, or a 2-fold dilution factor. In some embodiments, the serial dilutions, e.g., 100 nL of serial dilution, 90 nL of serial dilution, 80 nL of serial dilution, 70 nL of serial dilution, 60 nL of serial dilution, 50 nL of serial dilution, 30 nL of serial dilution, 20 nL of serial dilution, or 10 nL of serial dilution, are added to a multi-welled plate, e.g., a 1536-well plate, a 384-well plate, or a 96-well plate. In some embodiments, PARP-1, e.g., GST-tagged PARP-1, is diluted in assay buffer, e.g., 50 μL of assay buffer, 40 μL of assay buffer, e.g., 30 μL of assay buffer, 20 μL of assay buffer, 10 μL of assay buffer, or 5 μL of assay buffer, and is added to the plate. In some embodiments, the plate is centrifuged, e.g., at 1000 rpm for 1 min, and incubated, e.g., incubated for 30 minutes at room temperature (RT). In some embodiments, a fluorescent probe, e.g., 10 μL of 6 nM PARP1-FL (TOCRIS, Cat #6461), is diluted in an assay buffer and is added to the plate. In some embodiments, the final concentrations of PARP-1 and fluorescent probe are 20 nM and 3 nM, respectively, in a total volume of 20 μL. In some embodiments, the plate is centrifuged, e.g., at 1000 rpm for 1 minute, and the assay plate is incubated, e.g., for 4 h at RT. In some embodiments, the samples in each well are read using a plate reader, e.g., an Envision instrument using excitation=480 nm, and emission wavelength=FITC FP-P pol 535 nm & FITC FP-S pol 535 nm). In some embodiments, percent inhibition is calculated from mP values using Inhibition (%)=[1−(mPc−mPL)/(mPH−mPL)]×100%, where mPc, mPL, and mPH are the mP values of test compound, Low controls, and High controls, respectively. In some embodiments, binding IC50 values are calculated using XLFit (equation 201: y=A+((B−A)/(1+((x/C)^D))), where A=bottom, B=top, C=IC50, and D=slope) with a floating top and bottom for curves.
Compounds of the present disclosure were tested in a PARP1 fluorescence polarization binding assay at Pharmaron (Beijing, P.R. China). In this biochemical assay, binding of test compound to recombinant human PARP1 reduces the amount of binding of a fluorescent probe, and consequently reduces the detected level of fluorescence polarization. Test compound stock solutions were prepared in DMSO and then serially diluted into 10 concentrations by 3-fold dilution in a 384-well plate using a TECAN EVO200. Alternatively, a single concentration was prepared. 60 nL of each dilution was transferred to the plate using an Echo550 (Labcyte), and then 10 μL 40 nM GST-tagged PARP1 (BPS Bioscience, Cat #80501), diluted in assay buffer (50 mM Tris pH 8.0, 0.001% Triton X-100, 10 mM MgCl2, 150 mM NaCl), was added to the plate. After a centrifugation at 1000 rpm for 1 min, the assay plate was incubated for 30 min at RT. 10 μL 6 nM PARP1-FL (TOCRIS, Cat #6461), diluted using assay buffer, was then added to the plate. The final concentrations of PARP1 and PARP1-FL were 20 nM and 3 nM, respectively, in a total volume of 20 μL. […]

Test [1] deals with DLD-1 wild-type colorectal adenocarcinoma cells. Briefly: Cell viability assay (Cell Titer-Glo, 7 days), DLD-1 wild-type. The test is classed as cell-based. The settings on record: Homo sapiens, 168 h, DLD-1 wild-type cells, read-out: DLD-1 wild-type % inh at 10 μM. An excerpt: (§1) In some embodiments, the biological assay measures the effects that compounds of the present disclosure may have on the viability of cells, e.g., the viability of cancer cells. In some embodiments, DLD-1 wild-type and DLD-1 BRCA2(−/−) colorectal adenocarcinoma cells, an isogenic pair of cell lines differing in the presence and absence, respectively, of both BRCA2 alleles, are used to measure the effect of the disclosed compounds on the viability of cancer cells. In some embodiments, the cells are harvested during the logarithmic growth period, counted, and seeded at a specified count in the wells of a 96- or 384-well cell culture plate. In some embodiments, after seeding, the cells are incubated, e.g., at 37° C., 5% CO2 overnight. In some embodiments, the cells are treated with compounds, e.g., with serially diluted test compounds at 8-11 concentrations within a desired concentration range, e.g., from 1 nM-10 μM, for the generation of dose-response curves. In some embodiments, the plate is further incubated, e.g., for another 3-7 days in a humidified incubator at 37° C. and 5% CO2. In some embodiments, cell viability is assessed by luminescence measurement after addition of Cell Titer-Glo reagent (Promega, Madison, Wis.) according to the manufacturer's instructions. In some embodiments, cell viability IC50 values are calculated using XLFit, equation 201: y=A+((B−A)/(1+((x/C)^D))), where A=bottom, B=top, C=IC50, and D=slope. In some embodiments, the effects of the test compounds on the viability of other cell lines such as MDA-MB-436, MDA-MB-231, SUM149PT, HCC1395, and UWB1.289 are determined in an analogous method.
(§2) Compounds of the present disclosure were tested for their effects on the viability of cancer cells. DLD-1 wild-type and DLD-1 BRCA2(−/−) colorectal adenocarcinoma cells, an isogenic pair of cell lines differing in the presence and absence, respectively, of both BRCA2 alleles, were used. The cells were harvested during the logarithmic growth period, counted, and seeded at 50 cells/well for DLD-1 wild-type and 200 cells/well for DLD-1 BRCA2(−/−) in a 384-well cell culture plate. After seeding, cells were incubated at 37° C., 5% CO2 overnight. Cells were treated with serially diluted test compounds at 10 concentrations (e.g., from 1.5 nM-30 μM) for generation of dose response curves, or at a single concentration. The plate was further incubated for another 7 days in a humidified incubator at 37° C. and 5% CO2. Cell viability was assessed by luminescence measurement after addition of Cell Titer-Glo reagent (Promega, Madison, Wis.) according to the manufacturer's instructions. Cell viability IC50 values were calculated using XLFit, equation 201. y=A+((B−A)/(1+((x/C)^D))), where A=bottom, B=top, C=IC50, and D=slope. IC50 values are shown in Table B and are presented in ranges, in which “+++”<300 nM, 300 nM≤“++”<3000 nM, and “+”≥3000 nM. Values for percent inhibition at 10 μM are also shown in Table B and are presented in ranges, in which “***”≥67%, 33%: “**”≤67%, and “*”<33%. Effects of the test compounds on the viability of other cell lines such as MDA-MB-436, MDA-MB-231, SUM149PT, HCC1395, and UWB1.289 are determined in an analogous method.
On the technique in general: ATP-based viability assays read luminescence as a measure of living cells.

In test [2] the test system is DLD-1 BRCA2(−/−) colorectal adenocarcinoma cells. Briefly: Cell viability assay (Cell Titer-Glo, 7 days), DLD-1 BRCA2(−/−). In kind it is cell-based. As to conditions: Homo sapiens, 168 h, DLD-1 BRCA2(−/−) cells.
From the text: as §1, §2

A further test deals with recombinant human PARP2 (Homo sapiens, UniProt Q9UGN5). Briefly: PARP2 fluorescence polarization binding assay. As to conditions: read-out: PARP2 % inh at 10 μM. Background: In fluorescence polarisation assays a small probe gives low polarisation when free and higher when bound to something large.
Sequence of recombinant human PARP2 (Q9UGN5 whole entry): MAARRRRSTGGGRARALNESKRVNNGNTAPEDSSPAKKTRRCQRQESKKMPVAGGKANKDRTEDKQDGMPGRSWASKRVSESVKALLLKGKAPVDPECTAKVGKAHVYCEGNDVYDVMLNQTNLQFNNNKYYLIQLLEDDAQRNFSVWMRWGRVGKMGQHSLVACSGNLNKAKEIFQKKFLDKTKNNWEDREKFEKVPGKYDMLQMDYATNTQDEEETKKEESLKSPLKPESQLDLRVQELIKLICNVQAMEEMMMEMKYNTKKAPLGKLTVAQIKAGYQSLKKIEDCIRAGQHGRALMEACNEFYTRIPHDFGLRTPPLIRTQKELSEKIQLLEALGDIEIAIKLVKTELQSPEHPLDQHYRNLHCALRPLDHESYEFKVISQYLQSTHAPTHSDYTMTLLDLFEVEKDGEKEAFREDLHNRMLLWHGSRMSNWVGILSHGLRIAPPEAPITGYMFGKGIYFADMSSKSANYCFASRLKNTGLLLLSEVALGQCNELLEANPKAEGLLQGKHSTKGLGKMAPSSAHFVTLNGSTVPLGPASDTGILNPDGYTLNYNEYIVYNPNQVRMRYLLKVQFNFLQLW
The mark [3] stands for this setting: percent inhibition at 10 μM, fluorescence polarization, GST-tagged PARP2 20 nM, PARP1-FL probe 3 nM.

Counter-ions that a name gives are not always drawn. Like-named read-outs stand apart in the source and are kept apart here.

In general, IC50 refers to the concentration that inhibits the measured activity by half.

Sequence of recombinant human PARP1 (P09874 whole entry): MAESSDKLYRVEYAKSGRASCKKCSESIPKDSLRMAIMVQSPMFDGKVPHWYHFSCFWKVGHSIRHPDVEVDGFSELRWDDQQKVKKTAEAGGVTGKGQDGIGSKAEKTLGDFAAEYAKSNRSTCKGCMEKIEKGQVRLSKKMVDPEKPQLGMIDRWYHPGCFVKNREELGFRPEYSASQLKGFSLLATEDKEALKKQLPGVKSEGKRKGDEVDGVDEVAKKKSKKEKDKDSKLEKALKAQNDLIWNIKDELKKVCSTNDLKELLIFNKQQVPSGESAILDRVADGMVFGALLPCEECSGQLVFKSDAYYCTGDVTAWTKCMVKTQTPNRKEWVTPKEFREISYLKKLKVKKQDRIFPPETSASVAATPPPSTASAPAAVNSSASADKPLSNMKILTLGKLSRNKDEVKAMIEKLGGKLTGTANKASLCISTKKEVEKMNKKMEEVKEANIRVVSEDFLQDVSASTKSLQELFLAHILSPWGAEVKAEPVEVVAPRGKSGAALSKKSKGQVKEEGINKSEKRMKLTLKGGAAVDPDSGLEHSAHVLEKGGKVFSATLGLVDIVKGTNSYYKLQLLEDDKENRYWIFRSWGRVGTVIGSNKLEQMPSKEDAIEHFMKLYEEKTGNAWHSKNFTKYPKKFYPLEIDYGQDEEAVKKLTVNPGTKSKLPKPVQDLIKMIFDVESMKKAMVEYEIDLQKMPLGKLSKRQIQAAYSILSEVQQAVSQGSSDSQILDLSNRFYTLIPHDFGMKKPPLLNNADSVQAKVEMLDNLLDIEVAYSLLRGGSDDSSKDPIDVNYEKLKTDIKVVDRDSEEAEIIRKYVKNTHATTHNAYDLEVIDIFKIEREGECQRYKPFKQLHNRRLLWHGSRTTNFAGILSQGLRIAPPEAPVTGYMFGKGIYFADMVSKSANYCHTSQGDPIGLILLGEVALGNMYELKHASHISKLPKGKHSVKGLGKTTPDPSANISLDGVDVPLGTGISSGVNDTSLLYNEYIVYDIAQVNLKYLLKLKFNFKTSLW

Take `CCNC(=O)Nc1cc(CN2CCN(c3ccc(C(=O)NC)nc3F)CC2)ccn1` [Compound 9, 5-(4-((2-(3-ethylureido)pyridin-4-yl)methyl)piperazin-1-yl)-6-fluoro-N-methylpicolinamide]: the results for the IC50 (at recombinant human PARP1; in test [2]) were < 0.1 µM and < 0.3 µM, respectively. Also, the inhibition at 10 µM (in test [1]; at recombinant human PARP2 (setting [3])) was < 33% in each case.

As for `CNC(=O)Nc1cc(CN2CCN(c3ccc(C(=O)NC)nc3C)CC2)ccn1` [Compound 42, N,6-dimethyl-5-(4-((2-(3-methylureido)pyridin-4-yl)methyl)piperazin-1-yl)picolinamide trifluoroacetate], the IC50 on recombinant human PARP1 is < 0.1 µM; in test [2], < 0.3 µM. For the same compound, the inhibition at 10 µM (in test [1]; on recombinant human PARP2) was < 33% each time.

With `CNC(=O)c1ccc(N2CCN(Cc3ccnc(NC(=O)NCCF)c3)CC2)c(C)n1` [Compound 261, 5-(4-((2-(3-(2-fluoroethyl)ureido)pyridin-4-yl)methyl)piperazin-1-yl)-N,6-dimethylpicolinamide], the IC50 at recombinant human PARP1 is < 0.1 µM; in test [2], < 0.3 µM. For the same compound, the inhibition at 10 µM (in test [1]; on recombinant human PARP2 (setting [3])) was < 33% in each case.

On to `CCNC(=O)Nc1cc(CN2CCN(c3ccc(C(=O)NC)nc3C)CC2=O)ccn1` [Compound 29, 5-(4-((2-(3-ethylureido)pyridin-4-yl)methyl)-3-oxopiperazin-1-yl)-N,6-dimethylpicolinamide], for which the IC50 was 0.1 to 3 µM at recombinant human PARP1 and ≥ 3 µM in test [2]. The inhibition at 10 µM (in test [1]; at recombinant human PARP2 (setting [3])) was < 33% throughout.

For the compound `CCNC(=O)Nc1cc(CN2CCN(c3ccc(C(=O)NC)nc3C(F)(F)F)CC2)ccn1` [Compound 21, 5-(4-((2-(3-ethylureido)pyridin-4-yl)methyl)piperazin-1-yl)-N-methyl-6-(trifluoromethyl)picolinamide trifluoroacetate], the results for the IC50 (on recombinant human PARP1; in test [2]) were < 0.1 µM and < 0.3 µM, respectively. Also, the inhibition at 10 µM (in test [1]; at recombinant human PARP2) was < 33% each time.

For the compound `CNC(=O)c1ccc(N2CCN(Cc3ccnc(NC(=O)NCC(F)F)c3)CC2)c(C)n1` [Compound 262, 5-(4-((2-(3-(2,2-difluoroethyl)ureido)pyridin-4-yl)methyl)piperazin-1-yl)-N,6-dimethylpicolinamide], the IC50 on recombinant human PARP1 was < 0.1 µM; in test [2], < 0.3 µM. The inhibition at 10 µM (in test [1]; at recombinant human PARP2 (setting [3])) was < 33% each time.

As to `CCNC(=O)Nc1cc(CN2CCN(c3ccc(C(=O)NC)nc3C)CC2)ccn1` [Compound 13, 5-(4-((2-(3-ethylureido)pyridin-4-yl)methyl)piperazin-1-yl)-N,6-dimethylpicolinamide formate], the IC50 at recombinant human PARP1 was < 0.1 µM; in test [2], < 0.3 µM. Moreover, the inhibition at 10 µM (in test [1]; at recombinant human PARP2) was < 33% throughout.

Take `CCNC(=O)Nc1cc(CN2CCN(c3ccc(C(=O)NC)nc3C)CC2)c(C)cn1` [Compound 70, 5-(4-((2-(3-ethylureido)-5-methylpyridin-4-yl)methyl)piperazin-1-yl)-N,6-dimethylpicolinamide formate]: the IC50 on recombinant human PARP1 is < 0.1 µM; in test [2] it was < 0.3 µM. In addition, the inhibition at 10 µM (in test [1]; on recombinant human PARP2) was < 33% throughout.

With `CCNC(=O)Nc1cc(CN2CCN(c3ccc(C(=O)NC)nc3C)CC2)ncn1` [Compound 230, 5-(4-((6-(3-ethylureido)pyrimidin-4-yl)methyl)piperazin-1-yl)-N,6-dimethylpicolinamide formate], the IC50 was < 0.1 µM on recombinant human PARP1 and < 0.3 µM in test [2]. Also, the inhibition at 10 µM (in test [1]; at recombinant human PARP2) was < 33% each time.

Turning to `CCCC(=O)Nc1cc(CN2CCN(c3ccc(C(=O)NC)nc3C)CC2)ccn1` [Compound 161, 5-(4-((2-butyramidopyridin-4-yl)methyl)piperazin-1-y)-N,6-dimethylpicolinamide], the values for the IC50 (at recombinant human PARP1; in test [2]) were 0.1 to 3 µM and 0.3 to 3 µM, respectively. In addition, the inhibition at 10 µM (in test [1]; on recombinant human PARP2 (setting [3])) was < 33% each time.

As to `CCNC(=O)Nc1cc(CN2CCN(c3ccc(C#N)nc3)CC2)ccn1` [Compound 267, 1-(4-((4-(6-cyanopyridin-3-yl)piperazin-1-yl)methyl)pyridin-2-yl)-3-ethylurea formate], the IC50 on recombinant human PARP1 was < 0.1 µM; in test [2] it was < 0.3 µM. In addition, the inhibition at 10 µM (in test [1]; at recombinant human PARP2) was < 33% each time.
